Reference: patent publication US8129398B2 (priority 2008, dated 2012)

These compounds were tested against T1, HIV-integrase (Human immunodeficiency virus type 1 group M subtype B, UniProt P12497) (assay: HIV-Integrase Inhibition Activity (SPA bead integration assay with P33 labeled target DNA)). Details: recombinant integrase, class symbols; read-out: in vitro activity.
T1 construct: Recombinant integrase (0.26 ng) was incubated with the beads
Assay type: biochemical
How it was run: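 Strand integration read as bead-proximity CPM after P33 target DNA (0.1 fmol) and inhibitor were added to washed integrase–substrate DNA complexes on SPA beads. Enzyme bound 90 min at 37° C; EDTA (10 mM final) terminated reaction; IC50 graded A/B/C.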

SMILES	IC50 [nM]
O=C(NC12CCC(CC1)Cn1c2nc(C(=O)NCc2ccc(F)cc2)c(O)c1=O)C(=O)N1CCN(CCO)CC1 [Example 72, N-(4-Fluorobenzyl)-3-hydroxy-10-(((4-(2-hydroxyethyl)-1-piperazinyl)(oxo)acetyl)amino)-4-oxo-4,6,7,8,9,10-hexahydro-7,10-ethanopyrimido[1,2-a]azepine-2-carboxamide]	< 10
CN(C)C(=O)C(=O)NC12CCC(CC1)Cn1c2nc(C(=O)NCc2ccccc2C(F)(F)F)c(O)c1=O [Example 377]	10 to 100
Cc1cc(CNC(=O)c2nc3n(c(=O)c2O)CC2CCC3(NS(=O)(=O)c3cn(C)c(=O)n(C)c3=O)CC2)ccc1F [Example 293, 7,10-Ethanopyrimido[1,2-a]azepine-2-carboxamide, N-[(4-fluoro-3-methylphenyl)methyl]-4,6,7,8,9,10-hexahydro-3-hydroxy-4-oxo-10-[[(1,2,3,4-tetrahydro-1,3-dimethyl-2,4-dioxo-5-pyrimidinyl)sulfonyl]amino]-]	< 10
CC(NC(=O)c1nc2n(c(=O)c1O)CC1CCC2(NC(=O)C(=O)N(C)C)CC1)c1ccccc1 (centres unmarked) [Example 366]	< 10
O=C(NC12CCC(CC1)Cn1c2nc(C(=O)NCc2ccc(F)cc2)c(O)c1=O)C(=O)N1CC(F)(F)C1 [Example 98, 10-(((3,3-Difluoro-1-azetidinyl) (oxo)acetyl)amino)-N-(4-fluorobenzyl)-3-hydroxy-4-oxo-4,6,7,8,9,10-hexahydro-7,10-ethanopyrimido[1,2-a]azepine-2-carboxamide]	< 10
CN(C)C(=O)C(=O)NC12CCC(CC1)Cn1c2nc(C(=O)NCCCn2ccnc2)c(O)c1=O [Example 350]	> 100
CN(C)C(=O)C(=O)NC12CCC(CC1)Cn1c2nc(C(=O)NCc2cccc(F)c2)c(O)c1=O [Example 371]	< 10
CCCOC(=O)N1CCCC1C(=O)NC12CCC(CC1)Cn1c2nc(C(=O)NCc2ccc(F)cc2)c(O)c1=O (centres unmarked) [Example 398]	< 10
COc1cc(CNC(=O)c2nc3n(c(=O)c2O)CC2CCC3(N(C)C(=O)C(=O)N(C)C)CC2)ccc1F [Example 160, N-(2-((4-Fluoro-3-methoxybenzyl)carbamoyl)-3-hydroxy-4-oxo-6,7,8,9-tetrahydro-7,10-ethanopyrimido[1,2-a]azepin-10(4H)-yl)-N,N′,N′-trimethylethanediamide]	< 10
Cc1cc(CNC(=O)c2nc3n(c(=O)c2O)CC2CCC3(NC(=O)c3cc(-c4cnn(C)c4)on3)CC2)ccc1F [Example 292, 7,10-Ethanopyrimido[1,2-a]azepine-2-carboxamide, N-[(4-fluoro-3-methylphenyl)methyl]-4,6,7,8,9,10-hexahydro-3-hydroxy-10-[[[5-(1-methyl-1H-pyrazol-4-yl)-3-isoxazolyl]carbonyl]amino]-4-oxo-]	< 10
O=C(NC12CCC(CCn3c1nc(C(=O)NCc1ccc(F)cc1)c(O)c3=O)C2)C(=O)N1CCC(F)CC1 (centres unmarked) [Example 203, 8,1,1-Methano-4H-pyrimido[1,2-a]azocine-2-carboxamide, N-[(4-fluorophenyl)methyl]-11-[[2-(4-fluoro-1-piperidinyl)-1,2-dioxoethyl]amino]-6,7,8,9,10,11-hexahydro-3-hydroxy-4-oxo-]	< 10
CN(C)C(=O)C(=O)NC12CCC(CC1)Cn1c2nc(C(=O)NCCc2ccccc2Cl)c(O)c1=O [Example 344]	10 to 100
CN(C)C(=O)C(=O)N(CCO)C12CCC(CC1)Cn1c2nc(C(=O)NCc2ccc(F)cc2)c(O)c1=O [Example 175, N-(2-((4-Fluorobenzyl)carbamoyl)-3-hydroxy-4-oxo-6,7,8,9-tetrahydro-7,10-ethanopyrimido[1,2-a]azepin-10(4H)-yl)-N-(2-hydroxyethyl)-N′,N′-dimethylethanediamide]	< 10
CN(C(=O)C(=O)N1CC[C@@H](F)C1)C12CCC(CC1)Cn1c2nc(C(=O)NCc2ccc(F)cc2)c(O)c1=O [Example 163, N-(4-Fluorobenzyl)-10-((((3R)-3-fluoro-1-pyrrolidinyl)(oxo)acetyl)(methyl)amino)-3-hydroxy-4-oxo-4,6,7,8,9,10-hexahydro-7,10-ethanopyrimido[1,2-a]azepine-2-carboxamide]	< 10
CN(C)C(=O)C(=O)NC12CCC(CC1)Cn1c2nc(C(=O)NCc2ccc(F)c(Cl)c2)c(O)c1=O [Example 112, N′-(2-((3-Chloro-4-fluorobenzyl)carbamoyl)-3-hydroxy-4-oxo-6,7,8,9-tetrahydro-7,10-ethanopyrimido[1,2-a]azepin-10(4H)-yl)-N,N-dimethylethanediamide]	< 10
O=C(NC12CCC(CC1)Cn1c2nc(C(=O)NCc2ccc(F)cc2)c(O)c1=O)C(=O)N1CCCC1 [Example 58, N-(4-Fluorobenzyl)-3-hydroxy-4-oxo-10-((oxo(1-pyrrolidinyl)acetyl)amino)-4,6,7,8,9,10-hexahydro-7,10-ethanopyrimido[1,2-a]azepine-2-carboxamide]	< 10
O=C(NCc1ccc(F)cc1)c1nc2n(c(=O)c1O)CC1CCC2(Nc2ncc[nH]2)CC1 [Example 334, 7,10-Ethanopyrimido[1,2-a]azepine-2-carboxamide, N-[(4-fluorophenyl)methyl]-4,6,7,8,9,10-hexahydro-3-hydroxy-10-(1H-imidazol-2-ylamino)-4-oxo-]	< 10
CN(C)C(=O)C(=O)NC12CCC(CC1)Cn1c2nc(C(=O)NCc2ccc(N(C)C)cc2)c(O)c1=O [Example 378]	10 to 100
CN(CCO)C(=O)C(=O)NC12CCC(CC1)Cn1c2nc(C(=O)NCc2ccc(F)cc2)c(O)c1=O [Example 81, N′-(2-((4-Fluorobenzyl)carbamoyl)-3-hydroxy-4-oxo-6,7,8,9-tetrahydro-7,10-ethanopyrimido[1,2-a]azepin-10(4H)-yl)-N-(2-hydroxyethyl)-N-methylethanediamide]	< 10
COCCN(C)C(=O)C(=O)NC12CCC(CC1)Cn1c2nc(C(=O)NCc2ccc(F)cc2)c(O)c1=O [Example 100, N′-(2-((4-Fluorobenzyl)carbamoyl)-3-hydroxy-4-oxo-6,7,8,9-tetrahydro-7,10-ethanopyrimido[1,2-a]azepin-10(4H)-yl)-N-(2-methoxyethyl)-N-methylethanediamide]	< 10
CC(C)CNC(=O)c1nc2n(c(=O)c1O)CC1CCC2(NC(=O)C(=O)N(C)C)CC1 [Example 341]	> 100
CN(C)C12CCC(Cn3c1nc(C(=O)NCc1ccc(F)cc1)c(O)c3=O)C2 (centres unmarked) [Example 195, 7,10-Methanopyrimido[1,2-a]azepine-2-carboxamide, 10-(dimethylamino)-N-[(4-fluorophenyl)methyl]-4,6,7,8,9,10-hexahydro-3-hydroxy-4-oxo-]	10 to 100
Cc1cc(CNC(=O)c2nc3n(c(=O)c2O)CC2CCC3(NC(=O)c3ccncc3)CC2)ccc1F [Example 309, 7,10-Ethanopyrimido[1,2-a]azepine-2-carboxamide, N-[(4-fluoro-3-methylphenyl)methyl]-4,6,7,8,9,10-hexahydro-3-hydroxy-4-oxo-10-[(4-pyridinylcarbonyl)amino]-]	< 10
CCCS(=O)(=O)N1CCCC1C(=O)NC12CCC(CC1)Cn1c2nc(C(=O)NCc2ccc(F)cc2)c(O)c1=O (centres unmarked) [Example 404]	< 10
CN(C)C(=O)C(=O)NC12CCC(CC1)Cn1c2nc(C(=O)NCc2cccs2)c(O)c1=O [Example 361]	< 10
CNC(=O)N1CCCC1C(=O)NC12CCC(CC1)Cn1c2nc(C(=O)NCc2ccc(F)cc2)c(O)c1=O (centres unmarked) [Example 401]	< 10
